Test results: PubChem BioAssay AID602168 (The Scripps Research Institute Molecular Screening Center, 2012)
The source made the active and inactive calls. The rule behind the calls is not given here.

Molecular target: Nuclear receptor coactivator 1 (Homo sapiens) (UniProt Q15788)
Assay: SRC1 coactivator transcriptional activity inhibitors, dose response, counter-screen for SRC3 inhibitor project, cell-based, luminescence (AID 602168)
Settings: Cell-based SRC1 luciferase reporter

Nuclear receptor coactivator 1 (Homo sapiens), sequence (Q15788 whole entry, looked up): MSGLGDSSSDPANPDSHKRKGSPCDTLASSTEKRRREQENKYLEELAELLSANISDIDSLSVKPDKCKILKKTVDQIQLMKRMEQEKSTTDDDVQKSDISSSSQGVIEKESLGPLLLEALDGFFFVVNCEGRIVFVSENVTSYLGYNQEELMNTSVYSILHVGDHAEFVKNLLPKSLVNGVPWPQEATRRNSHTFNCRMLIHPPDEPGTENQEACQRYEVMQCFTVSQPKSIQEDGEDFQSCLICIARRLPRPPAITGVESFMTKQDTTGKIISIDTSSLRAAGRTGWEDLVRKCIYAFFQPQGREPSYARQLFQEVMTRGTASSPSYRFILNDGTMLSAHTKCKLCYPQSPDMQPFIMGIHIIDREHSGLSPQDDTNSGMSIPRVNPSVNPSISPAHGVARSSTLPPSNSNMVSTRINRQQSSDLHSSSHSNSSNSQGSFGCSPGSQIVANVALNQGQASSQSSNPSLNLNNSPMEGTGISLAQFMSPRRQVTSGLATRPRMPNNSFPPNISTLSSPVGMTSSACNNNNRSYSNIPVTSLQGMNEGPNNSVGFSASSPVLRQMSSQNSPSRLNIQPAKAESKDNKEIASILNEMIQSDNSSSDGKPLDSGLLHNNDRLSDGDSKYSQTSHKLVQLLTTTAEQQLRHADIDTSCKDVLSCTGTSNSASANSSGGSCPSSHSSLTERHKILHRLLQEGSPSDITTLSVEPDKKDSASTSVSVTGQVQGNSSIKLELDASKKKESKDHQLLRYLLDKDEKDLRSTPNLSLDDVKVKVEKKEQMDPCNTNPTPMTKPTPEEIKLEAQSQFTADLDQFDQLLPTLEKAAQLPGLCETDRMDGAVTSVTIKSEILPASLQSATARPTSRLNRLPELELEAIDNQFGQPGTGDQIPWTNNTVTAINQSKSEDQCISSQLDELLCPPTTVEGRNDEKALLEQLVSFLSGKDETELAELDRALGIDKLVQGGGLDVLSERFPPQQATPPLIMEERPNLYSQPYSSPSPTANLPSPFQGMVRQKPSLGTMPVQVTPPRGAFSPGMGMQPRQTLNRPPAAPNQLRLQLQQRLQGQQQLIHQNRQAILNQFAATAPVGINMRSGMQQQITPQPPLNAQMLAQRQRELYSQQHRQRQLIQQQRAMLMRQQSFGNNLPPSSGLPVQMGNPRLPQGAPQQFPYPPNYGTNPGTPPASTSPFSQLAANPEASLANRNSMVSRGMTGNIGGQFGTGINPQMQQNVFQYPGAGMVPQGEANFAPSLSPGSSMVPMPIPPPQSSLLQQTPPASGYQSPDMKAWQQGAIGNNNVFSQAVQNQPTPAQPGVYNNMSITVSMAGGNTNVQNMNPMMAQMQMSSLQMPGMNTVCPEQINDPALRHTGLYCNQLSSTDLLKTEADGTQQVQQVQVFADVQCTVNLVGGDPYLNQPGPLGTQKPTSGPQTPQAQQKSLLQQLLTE

SMILES | IC50
COc1ccccc1C(=O)N(CCC1CCCN1C)c1nc2ccccc2s1 (centres undefined) | > 35.9 µM (inactive)
CC(=O)Nc1ccc(SCC(=O)c2cc(C)n(-c3ccccc3)c2C)cc1 | > 35.9 µM (inactive)
CN(C)c1ccc(C(=S)Nc2ccccc2)cc1 | > 35.9 µM (inactive)
O=c1[nH]c2ccccc2n1C1CCN(C(c2ccccc2)c2nnnn2-c2ccc3c(c2)OCCO3)CC1 (centres undefined) | inactive
COc1cccc(F)c1C(C[N+](=O)[O-])c1c(N)n(C)c(=O)n(C)c1=O (centres undefined) | inactive
NC(=S)N/N=C1\CCOc2ccc(Cl)cc21 | > 35.9 µM (inactive)
CN(Cc1cnc2nc(N)nc(N)c2n1)c1ccc(C(=O)NC(CCC(=O)O)C(=O)O)cc1 (centres undefined) | > 35.9 µM (inactive)
CCCS(=O)(=O)Nc1ccc(Nc2c3ccccc3nc3ccccc23)c(OC)c1 | 0.525 µM
CCOc1cc(/C=C2\CCC/C(=C\c3cc(Cl)c(O)c(OCC)c3)C2=O)cc(Cl)c1O | > 35.8 µM (inactive)
Nc1ccc(-c2cc3ccccc3oc2=O)cc1 | > 35.9 µM (inactive)
Cc1ccc(NC(=O)c2cc(C)n(-c3ccccc3)c2C)cc1 | > 35.9 µM (inactive)
CC(=O)c1ccc(Nc2c3c(nc4ccccc24)CCCC3)cc1 | > 35.9 µM (inactive)
O=C(CNc1cccc([N+](=O)[O-])c1)N/N=C/c1ccc([N+](=O)[O-])o1 | > 35.9 µM (inactive)
CCOC(=O)c1cc2sccc2n1CC(=O)N1CCc2ccccc21 | > 35.9 µM (inactive)
COc1ccc(CCNC(=O)c2nnn(-c3ccc4c(c3)OCCO4)c2N)cc1OC | > 35.9 µM (inactive)
COc1cc(/C=N/NC(=Nc2ccc(C)cc2)c2nc3ccccc3s2)ccc1O | 8.17 µM
Nc1nccc(-c2ccc(-n3cnc4ccccc43)cc2)n1 | 2.23 µM
COc1cc(/C=C(/C(=O)c2cccs2)c2nc3ccccc3[nH]2)cc(OC)c1O | > 35.9 µM (inactive)
C=CCn1c(O)c(C(C)=NCc2cc(OC)cc(OC)c2)c(=O)[nH]c1=O | > 35.9 µM (inactive)
COc1cccc(/C=N/Nc2ccc([N+](=O)[O-])cn2)c1O | > 35.9 µM (inactive)
O=C(Nc1nc2cc3c(cc2s1)OCCO3)C1=COCCO1 | inactive
Cc1nc(N2CCC(C(N)=O)CC2)c2c(-c3cccs3)csc2n1 | 8.33 µM
C(=NNc1ccc2ccccc2n1)c1ccccn1 | > 35.9 µM (inactive)
O=[N+]([O-])c1nn(-c2ccc3c(c2)OCCO3)n(O)c1=Nc1ccccc1 | 0.812 µM
COc1cc2c(c(OC)c1OC)-c1ccc(SC)c(=O)cc1C(NC=O)CC2 (centres undefined) | > 35.9 µM (inactive)
COc1cc(C(=O)N/N=C(\c2ccccc2)c2ccccn2)cc(OC)c1OC | > 12 µM (inactive)

SMILES | IC50
COc1ccc(-c2cn[nH]c2-c2ccc(OC)cc2O)cc1 | 8.83 µM
COc1cc2oc(=O)cc(-c3ccc(-c4ccc(CO)cc4)cc3)c2c(OC)c1OC | 8.05 µM
C[C@@H](C(=O)Nc1ccc2c(c1)OCCO2)n1c(=O)[nH]c2ccccc2c1=O | > 35.9 µM (inactive)
O=C(NC1CCCCC1)C(c1cccnc1)N(C(=O)CCl)c1cccc(Cl)c1 (centres undefined) | inactive
CCc1nc(N)nc(N)c1-c1ccc(Cl)c([N+](=O)[O-])c1 | 0.603 µM
Nc1nc(CCl)nc(Nc2cccc3ccccc23)n1 | inactive
Fc1ccc(CSc2nnc(-c3ccncc3)o2)cc1 | 3.43 µM
O=C(CCl)N(c1ccccc1)C1CCS(=O)(=O)C1 (centres undefined) | inactive
Cc1ccc(/C=C2\SC(=S)N(CCCC(=O)NC3CCCC3)C2=O)cc1 | 3.26 µM
CCOc1ccc(-c2cc(C)n3nc(C(N)=O)cc3n2)cc1 | inactive
CCN(c1cccc(C)c1)c1ncnc2nc[nH]c12 | inactive
COc1ccc(C(C(=O)NC2CCCCC2)N(C(=O)CCl)c2ccc(Cl)cc2)cc1 (centres undefined) | inactive
CN1CCN(c2ccc(NC(=O)N3CCc4ccccc43)cc2)CC1 | > 35.9 µM (inactive)
CC(=O)c1cccc(-c2csc3ncnc(Sc4nnnn4C)c23)c1 | > 35.9 µM (inactive)
CCOc1ccc(/C=C2\SC(=S)N(CCC(=O)O)C2=O)cc1 | 9.2 µM
Cc1cccc(Oc2sc(C(=O)c3ccccc3)c(N)c2C#N)c1 | inactive
Cc1c(/C(O)=C2/C(=O)C(=O)N(Cc3cccnc3)C2c2ccccn2)cnn1-c1ccccc1 (centres undefined) | > 35.9 µM (inactive)
COC(=O)c1c(C)n(-c2ccc(OC)cc2)c2ccc(O)cc12 | 8.12 µM
Clc1ccc(-c2csc3ncnc(NCCN4CCOCC4)c23)cc1 | inactive
CN[C@H]1CCc2cc(OC)c(OC)c(OC)c2-c2ccc(OC)c(=O)cc21 | > 35.9 µM (inactive)
COc1cccc(CNc2ncnc3ccc(-c4c(C)noc4C)cc23)c1 | > 35.9 µM (inactive)
Cc1sc2ncnc(N3CCC(C(=O)Nc4ccccc4C(C)(C)C)CC3)c2c1C | 7.15 µM
Cc1ccc(OCC(=O)c2cc(C)n(-c3ccccc3)c2C)c([N+](=O)[O-])n1 | inactive
NC(=O)c1sc2nc3c(c(-c4ccco4)c2c1N)CCC3 | 3.29 µM
CCC(=O)N1CCN(c2ccnc3cc(Cl)ccc23)CC1 | inactive
CN1C(=O)C2(C(C#N)=C(N)N(c3cc(Cl)cc(Cl)c3)C3=C2C(=O)CCC3)c2ccccc21 (centres undefined) | > 35.9 µM (inactive)

SMILES | IC50
CC(=O)NC(c1cc(Cl)c2cccnc2c1O)C(C)C (centres undefined) | 7.94 µM
COc1cccc2c1C(=N)c1c(O)c3c(c(O)c1C2=O)CC(O)(C(C)=O)CC3OC1CC(N)C(O)C(C)O1 (centres undefined) | > 35.9 µM (inactive)
CCCC(=O)NC(c1ccc(Cl)cc1)c1ccc2cccnc2c1O (centres undefined) | 8.71 µM
COc1ccc(/C=C2\CN(Cc3ccccc3)C/C(=C\c3ccc(OC)c(O)c3)C2=O)cc1O | > 35.9 µM (inactive)
CS(=O)c1nc(-c2ccc(Br)cc2)cc(-c2ccccc2)c1C#N (centres undefined) | inactive
CC1CCN(C2=NC(=O)/C(=C/c3ccccc3F)S2)CC1 | > 35.9 µM (inactive)
OCCN1CCN(C(=S)c2ccc(-c3ccccc3)cc2)CC1 | 3.67 µM
CCOc1ccccc1-n1c(SCC(=O)Nc2ccccc2C(=O)O)nc2ccccc2c1=O | > 35.9 µM (inactive)
CCc1ccc(/C=C2\SC(=S)N(CCCC(=O)NCCCN3CCOCC3)C2=O)cc1 | inactive
O=C(COc1ccc(Cl)cc1)Nc1ccc(C(=O)NCc2cccnc2)cc1 | 9.27 µM
Cn1cnc([N+](=O)[O-])c1Sc1nc(N)nc2c1ncn2C1OC(CO)C(O)C1O (centres undefined) | > 35.9 µM (inactive)
O=c1[nH]cnc2c1nnn2C1OC(CO)C(O)C1O (centres undefined) | > 35.8 µM (inactive)
Cc1nc2c(-c3ccc(Cl)cc3)cnn2c(N)c1-c1ccc(F)cc1 | > 35.9 µM (inactive)
O=C(N/N=C(\c1ccccc1)c1ccccn1)c1ccccc1Cl | inactive
Cc1cc(C(=O)CN2C(=O)c3ccccc3S2(=O)=O)c(C)n1C(C)C | inactive
CN(Cc1cnc2nc(N)nc(N)c2n1)c1ccc(C(=O)NC(CCC(=O)O)C(=O)O)c2ccccc12 (centres undefined) | > 35.9 µM (inactive)
Cc1cc(/C=C2\Cc3ccccc3C2=O)c(C)n1-c1ccccc1 | inactive
O=C(NCc1ccccc1)c1c(Cl)nc(Cl)c(Cl)c1Cl | > 35.9 µM (inactive)
O=C(NCCCn1ccnc1)c1ccc(N2CCCCCC2)c([N+](=O)[O-])c1 | inactive
CC(=O)OCCN1c2ccccc2Sc2cnccc21 | inactive
COc1cccc(/C=N/Nc2cc(-n3nc(C)cc3-c3ccccc3)ncn2)c1O | inactive
COc1cccc(NC(=O)CSc2nnc(-c3cc(C)n(-c4ccccc4)c3C)o2)c1 | > 35.9 µM (inactive)
CC(C)(C)c1cc(C(=O)N/N=C/c2ccc(O)cc2)n(-c2ccccc2)n1 | > 35.9 µM (inactive)
O=C(Nc1nc2ccccc2s1)C1c2ccccc2Oc2ccccc21 | inactive
CC1(C)N=C(N)N=C(N)N1CCCCc1ccccc1 | 4.58 µM
Cc1cc(C(=O)COC(=O)C2=COCCO2)c(C)n1-c1ccccc1 | inactive

SMILES | IC50
COc1cc2c(cc1OC)C(C)N(C(=O)c1cccc([N+](=O)[O-])c1)CC2 (centres undefined) | inactive
CCOC(=O)CC(=O)CSc1nccc(-c2cccnc2)n1 | > 35.9 µM (inactive)
CC(C)(C)C(=O)Nc1ccc(N=Nc2ccccc2)cc1 | > 35.9 µM (inactive)
COc1ccc(Nc2ccncc2[N+](=O)[O-])cc1 | 9.17 µM
O=C(Nc1ccc(OCC(=O)N2CCOCC2)cc1)c1cncc(Br)c1 | inactive
c1ccc2c(c1)Nc1ccncc1S2 | inactive
O=C(NCCc1ccccc1)c1ccc2c(c1)OCCO2 | inactive
Fc1ccccc1-c1csc(=Nc2cccnc2)n1CCCn1ccnc1 | 7.21 µM
Cc1nc(N)nc(N)c1-c1ccc(Cl)c(Cl)c1 | 5.41 µM
CCOC(=O)C(=CNc1ccc(NC2=NCC(C)S2)cc1)C(=O)OCC (centres undefined) | > 35.8 µM (inactive)
Nc1nc2c(nnn2C2CC(O)C(CO)O2)c(=O)[nH]1 (centres undefined) | > 35.9 µM (inactive)
COc1ccccc1N(C(=O)CCl)c1cn(C(C)=O)c2ccccc12 | > 35.9 µM (inactive)
COc1ccc(-c2nsc3c(N4CCCCC4)ncnc23)cc1 | > 35.9 µM (inactive)
C(=Cc1cnc2ccccc2n1)c1ccc2c(c1)OCO2 | inactive
CC(=O)Nc1ccc(SCC(=O)c2cc(C)n(-c3ccccc3F)c2C)cc1 | > 12 µM (inactive)
COc1ccc(OC)c(Cc2cnc3nc(N)nc(N)c3c2C)c1 | > 35.9 µM (inactive)
CCOc1ccc(Nc2cc(C)nc(-n3nc(C)cc3C)n2)cc1 | > 35.9 µM (inactive)
CCn1ccnc1CN(C)Cc1cn[nH]c1-c1ccc(OC)c(F)c1 | 9.9 µM
C#CC(=O)N(c1cc(OC)ccc1OC)C(C(=O)NC1CCCC1)c1cccs1 (centres undefined) | > 35.9 µM (inactive)
S=C(Nc1ccccc1)Nc1ccc(OCc2ccc(Cl)cc2Cl)cc1 | inactive
Nc1nc(=S)c2ncn([C@@H]3O[C@H](CO)[C@@H](O)[C@H]3O)c2[nH]1 | > 35.9 µM (inactive)
C=CC[n+]1c(-c2ccc(C)cc2)csc1Nc1ccc(NC(C)=O)cc1 | > 35.9 µM (inactive)
O=C(N/N=C\c1ccc([N+](=O)[O-])o1)C1COc2ccccc2O1 (centres undefined) | > 35.9 µM (inactive)
O=C(N/N=C/c1cc(Br)c(Br)s1)c1ccncc1 | inactive
Cc1ccc2nc(C(F)(F)F)c(C#N)c(N)c2c1 | inactive
Oc1ccc(C=NNc2ccccn2)c(O)c1 | > 35.9 µM (inactive)
